Tests used:
[1] = biological target: T1, ATP-binding cassette sub-family C member 4 (Homo sapiens, UniProt O15439); assay: TP_TRANSPORTER: efflux in MRP4-expressing NIH3T3 cells; type: functional, cell-based; conditions: mouse
T1 sequence (O15439 whole entry): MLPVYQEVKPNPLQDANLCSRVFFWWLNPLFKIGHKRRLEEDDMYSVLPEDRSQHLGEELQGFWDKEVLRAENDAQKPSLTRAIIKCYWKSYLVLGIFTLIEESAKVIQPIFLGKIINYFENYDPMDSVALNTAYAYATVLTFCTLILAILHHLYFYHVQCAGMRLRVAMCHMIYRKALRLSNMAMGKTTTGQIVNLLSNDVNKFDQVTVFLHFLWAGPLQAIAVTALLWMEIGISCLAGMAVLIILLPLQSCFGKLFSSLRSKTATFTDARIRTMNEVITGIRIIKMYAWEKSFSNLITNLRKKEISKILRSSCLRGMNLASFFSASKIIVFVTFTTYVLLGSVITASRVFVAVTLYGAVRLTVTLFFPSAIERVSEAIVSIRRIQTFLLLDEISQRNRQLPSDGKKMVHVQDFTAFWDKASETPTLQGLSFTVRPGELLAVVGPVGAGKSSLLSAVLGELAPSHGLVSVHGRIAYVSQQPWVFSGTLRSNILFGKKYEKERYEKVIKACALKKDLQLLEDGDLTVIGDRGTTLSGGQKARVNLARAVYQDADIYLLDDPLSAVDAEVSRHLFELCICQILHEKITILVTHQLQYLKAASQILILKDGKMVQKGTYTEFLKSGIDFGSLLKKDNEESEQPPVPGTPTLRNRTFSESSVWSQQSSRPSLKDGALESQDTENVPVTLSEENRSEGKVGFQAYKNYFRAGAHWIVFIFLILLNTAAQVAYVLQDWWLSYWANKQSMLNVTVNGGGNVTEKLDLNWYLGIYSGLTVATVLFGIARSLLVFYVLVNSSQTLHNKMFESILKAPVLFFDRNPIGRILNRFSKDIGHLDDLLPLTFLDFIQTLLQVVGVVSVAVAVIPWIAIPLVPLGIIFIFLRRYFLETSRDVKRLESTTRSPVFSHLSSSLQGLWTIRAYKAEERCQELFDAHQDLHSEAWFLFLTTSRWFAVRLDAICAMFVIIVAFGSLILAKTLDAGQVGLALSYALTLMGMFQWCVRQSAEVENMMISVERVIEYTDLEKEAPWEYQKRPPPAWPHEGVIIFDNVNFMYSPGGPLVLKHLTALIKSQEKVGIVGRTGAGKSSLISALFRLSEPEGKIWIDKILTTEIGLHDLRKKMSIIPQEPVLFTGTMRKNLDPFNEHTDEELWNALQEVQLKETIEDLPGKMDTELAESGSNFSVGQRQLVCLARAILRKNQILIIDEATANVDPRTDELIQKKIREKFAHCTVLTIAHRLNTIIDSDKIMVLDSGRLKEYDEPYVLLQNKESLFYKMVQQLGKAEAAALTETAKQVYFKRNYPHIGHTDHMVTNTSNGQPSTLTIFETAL

[2] = biological target: T1, ATP-binding cassette sub-family C member 4; assay: TP_TRANSPORTER: inhibition of E217betaG uptake (E217betaG: 1 uM, cGMP: 300 uM) in membrane vesicles from MRP4-expressing Sf9 cells; type: functional, cell membranes, Membrane vesicle; design: scale not given: the % may be the effect or the level left; conditions: sf9, 300 µM
MRP4 (ABCC4) = biological target: T2, MRP4 (ABCC4) (Homo sapiens, UniProt O15439); assay: TP_TRANSPORTER: inhibition of E217betaG uptake (E217betaG: 1 uM, MTX: 300 uM) in membrane vesicles from MRP4-expressing Sf9 cells; type: functional, cell membranes, Membrane vesicle; design: scale not given: the % may be the effect or the level left; conditions: probe E217betaG (estradiol 17beta-glucuronide), read-out: Activity
T2 sequence (O15439 whole entry): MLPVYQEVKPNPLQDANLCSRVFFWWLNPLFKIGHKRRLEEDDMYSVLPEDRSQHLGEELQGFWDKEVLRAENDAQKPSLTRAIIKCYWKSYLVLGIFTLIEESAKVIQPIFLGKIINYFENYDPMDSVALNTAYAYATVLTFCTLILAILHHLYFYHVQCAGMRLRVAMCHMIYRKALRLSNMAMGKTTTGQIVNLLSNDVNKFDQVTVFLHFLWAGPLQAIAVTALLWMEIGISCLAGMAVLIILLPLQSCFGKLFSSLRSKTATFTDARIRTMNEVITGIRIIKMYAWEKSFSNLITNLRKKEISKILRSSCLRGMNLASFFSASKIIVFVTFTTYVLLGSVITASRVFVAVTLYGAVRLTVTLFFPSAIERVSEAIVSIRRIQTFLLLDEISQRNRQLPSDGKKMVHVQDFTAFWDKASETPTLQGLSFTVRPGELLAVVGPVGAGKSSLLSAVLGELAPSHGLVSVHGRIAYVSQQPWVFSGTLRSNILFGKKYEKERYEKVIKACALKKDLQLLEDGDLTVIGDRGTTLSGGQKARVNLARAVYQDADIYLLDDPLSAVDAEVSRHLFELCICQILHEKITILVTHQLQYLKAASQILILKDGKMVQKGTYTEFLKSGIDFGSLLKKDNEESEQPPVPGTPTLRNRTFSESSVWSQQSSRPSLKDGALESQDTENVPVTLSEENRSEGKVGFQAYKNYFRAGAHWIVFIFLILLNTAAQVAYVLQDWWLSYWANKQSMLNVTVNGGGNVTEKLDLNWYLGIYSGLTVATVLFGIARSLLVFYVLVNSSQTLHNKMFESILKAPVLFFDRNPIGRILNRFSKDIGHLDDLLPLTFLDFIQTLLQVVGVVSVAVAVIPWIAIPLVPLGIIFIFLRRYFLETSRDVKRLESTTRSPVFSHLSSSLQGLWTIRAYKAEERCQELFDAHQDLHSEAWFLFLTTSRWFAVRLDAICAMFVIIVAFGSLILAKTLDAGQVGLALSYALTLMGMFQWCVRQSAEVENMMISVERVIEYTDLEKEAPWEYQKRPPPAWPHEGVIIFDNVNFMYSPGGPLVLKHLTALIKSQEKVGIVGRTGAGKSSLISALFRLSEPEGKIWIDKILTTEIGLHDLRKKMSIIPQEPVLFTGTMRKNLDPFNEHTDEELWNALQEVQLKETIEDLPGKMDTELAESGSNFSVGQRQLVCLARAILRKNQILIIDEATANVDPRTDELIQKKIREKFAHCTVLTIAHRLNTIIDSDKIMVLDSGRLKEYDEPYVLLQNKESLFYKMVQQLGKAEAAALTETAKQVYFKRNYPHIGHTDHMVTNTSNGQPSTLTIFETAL

[3] = substrate: C[C@]12CC[C@@H]3c4ccc(O)cc4CC[C@H]3[C@@H]1CC[C@@H]2O[C@@H]1O[C@H](C(=O)O)[C@@H](O)[C@H](O)[C@H]1O; assay: (§1) TP_TRANSPORTER: uptake in membrane vesicles from MRP4-expressing Sf9 cells; type: functional, cell membranes, Membrane vesicle
[4] = substrate: [H][C@@]12COP(=O)(O)O[C@@]1([H])[C@@H](O)[C@H](n1cnc3c(=O)[nH]c(N)nc31)O2; assay: as §1; type: functional, cell membranes, Membrane vesicle

Molecule: Sc1ncnc2nc[nH]c12 [MERCAPTOPURINE ANHYDROUS]
- Activity [1]: substrate [+]

Molecule: Nc1nc2c(ncn2[C@@H]2O[C@@H]3COP(=O)(O)O[C@H]3[C@H]2O)c(=O)[nH]1
- Activity [2]: 16.2%

Molecule: CN(Cc1cnc2nc(N)nc(N)c2n1)c1ccc(C(=O)N[C@@H](CCC(=O)O)C(=O)O)cc1 [METHOTREXATE]
- activity at 300 µM (MRP4 (ABCC4)): 40.3%

B1: ATP-binding cassette sub-family C member 4 (Homo sapiens) (protein)
chain: MLPVYQEVKPNPLQDANLCSRVFFWWLNPLFKIGHKRRLEEDDMYSVLPEDRSQHLGEELQGFWDKEVLRAENDAQKPSLTRAIIKCYWKSYLVLGIFTLIEESAKVIQPIFLGKIINYFENYDPMDSVALNTAYAYATVLTFCTLILAILHHLYFYHVQCAGMRLRVAMCHMIYRKALRLSNMAMGKTTTGQIVNLLSNDVNKFDQVTVFLHFLWAGPLQAIAVTALLWMEIGISCLAGMAVLIILLPLQSCFGKLFSSLRSKTATFTDARIRTMNEVITGIRIIKMYAWEKSFSNLITNLRKKEISKILRSSCLRGMNLASFFSASKIIVFVTFTTYVLLGSVITASRVFVAVTLYGAVRLTVTLFFPSAIERVSEAIVSIRRIQTFLLLDEISQRNRQLPSDGKKMVHVQDFTAFWDKASETPTLQGLSFTVRPGELLAVVGPVGAGKSSLLSAVLGELAPSHGLVSVHGRIAYVSQQPWVFSGTLRSNILFGKKYEKERYEKVIKACALKKDLQLLEDGDLTVIGDRGTTLSGGQKARVNLARAVYQDADIYLLDDPLSAVDAEVSRHLFELCICQILHEKITILVTHQLQYLKAASQILILKDGKMVQKGTYTEFLKSGIDFGSLLKKDNEESEQPPVPGTPTLRNRTFSESSVWSQQSSRPSLKDGALESQDTENVPVTLSEENRSEGKVGFQAYKNYFRAGAHWIVFIFLILLNTAAQVAYVLQDWWLSYWANKQSMLNVTVNGGGNVTEKLDLNWYLGIYSGLTVATVLFGIARSLLVFYVLVNSSQTLHNKMFESILKAPVLFFDRNPIGRILNRFSKDIGHLDDLLPLTFLDFIQTLLQVVGVVSVAVAVIPWIAIPLVPLGIIFIFLRRYFLETSRDVKRLESTTRSPVFSHLSSSLQGLWTIRAYKAEERCQELFDAHQDLHSEAWFLFLTTSRWFAVRLDAICAMFVIIVAFGSLILAKTLDAGQVGLALSYALTLMGMFQWCVRQSAEVENMMISVERVIEYTDLEKEAPWEYQKRPPPAWPHEGVIIFDNVNFMYSPGGPLVLKHLTALIKSQEKVGIVGRTGAGKSSLISALFRLSEPEGKIWIDKILTTEIGLHDLRKKMSIIPQEPVLFTGTMRKNLDPFNEHTDEELWNALQEVQLKETIEDLPGKMDTELAESGSNFSVGQRQLVCLARAILRKNQILIIDEATANVDPRTDELIQKKIREKFAHCTVLTIAHRLNTIIDSDKIMVLDSGRLKEYDEPYVLLQNKESLFYKMVQQLGKAEAAALTETAKQVYFKRNYPHIGHTDHMVTNTSNGQPSTLTIFETAL
- Km [3]: 30.3 µM
- Km [4]: 9.69 µM

— ChEMBL document CHEMBL2074175, “Transport of cyclic nucleotides and estradiol 17-beta-D-glucuronide by multidrug resistance protein 4. Resistance to 6-mercaptopurine and 6-thioguanine” (J Biol Chem, 2001)
